Several values for one entry are separate records, joined by “and”; a condition that tells them apart may be missing. Equal values may be shown once.
Settings: Liquid, Transpiration method

CC(=O)N(C)C [N,N-dimethylethanamide]
Settings | vapor or sublimation pressure
273.3 K | 0.03543 kPa and 0.03607 kPa and 0.035 kPa
274.7 K | 0.03924 kPa
275.9 K | 0.04222 kPa
276.5 K | 0.04528 kPa
276.9 K | 0.04668 kPa
277.3 K | 0.05063 kPa
278.2 K | 0.05175 kPa
278.6 K | 0.05303 kPa
279.7 K | 0.058 kPa
281.3 K | 0.06713 kPa and 0.07108 kPa
281.4 K | 0.06481 kPa
281.9 K | 0.06864 kPa
282.4 K | 0.07295 kPa
283 K | 0.07741 kPa
285.3 K | 0.0977 kPa
285.8 K | 0.09266 kPa
286.4 K | 0.09668 kPa
287.3 K | 0.1021 kPa
288.2 K | 0.1121 kPa
288.3 K | 0.1147 kPa
289.3 K | 0.1307 kPa
290.2 K | 0.1314 kPa
290.8 K | 0.1301 kPa
291.2 K | 0.1351 kPa
291.3 K | 0.1465 kPa
291.8 K | 0.1543 kPa
293.2 K | 0.1571 kPa
293.3 K | 0.1763 kPa
294.2 K | 0.1744 kPa
296.2 K | 0.2041 kPa
296.3 K | 0.2 kPa
297.2 K | 0.2169 kPa
297.3 K | 0.2291 kPa
298.1 K | 0.2275 kPa
298.2 K | 0.2301 kPa
300.2 K | 0.2612 kPa
300.7 K | 0.2666 kPa and 0.2829 kPa
301.3 K | 0.2983 kPa
302.2 K | 0.3174 kPa
302.7 K | 0.3279 kPa
303 K | 0.3058 kPa
303.2 K | 0.3248 kPa
304.7 K | 0.3758 kPa
305.2 K | 0.3538 kPa and 0.3944 kPa
305.6 K | 0.3795 kPa
308 K | 0.4422 kPa
308.1 K | 0.4305 kPa
310.6 K | 0.5041 kPa
313.1 K | 0.6025 kPa
313.2 K | 0.6035 kPa
315.7 K | 0.711 kPa
316.4 K | 0.7274 kPa
318.2 K | 0.8426 kPa
320.8 K | 0.9968 kPa
323.2 K | 1.115 kPa
323.3 K | 1.128 kPa
325.8 K | 1.285 kPa
328.3 K | 1.481 kPa

CCCCN(CCCC)C(C)=O [N,N-dibutylacetamide]
Settings | vapor or sublimation pressure
291.8 K | 0.0013 kPa
298.8 K | 0.00247 kPa
300.9 K | 0.00292 kPa
301.8 K | 0.00324 kPa
303.9 K | 0.00402 kPa
306.6 K | 0.00505 kPa
306.7 K | 0.00514 kPa
308.8 K | 0.00635 kPa
312.5 K | 0.00844 kPa
315.7 K | 0.0107 kPa
317.5 K | 0.01304 kPa
320.4 K | 0.01631 kPa
320.7 K | 0.01642 kPa
320.8 K | 0.01653 kPa
322.6 K | 0.01907 kPa
323.6 K | 0.02074 kPa
325.6 K | 0.02381 kPa
327.2 K | 0.02708 kPa
327.6 K | 0.0289 kPa
330.6 K | 0.03472 kPa and 0.03551 kPa
333.3 K | 0.04451 kPa
334.8 K | 0.04701 kPa
335.7 K | 0.05254 kPa
337.5 K | 0.05938 kPa
340.7 K | 0.0733 kPa
343.6 K | 0.09061 kPa

CCCCCCN(CCCCCC)C(C)=O [N,N-dihexylacetamide]
Settings | vapor or sublimation pressure [kPa]
319.4 K | 0.0004
322.4 K | 0.00053
325.5 K | 0.00071
328.4 K | 0.00091
329.2 K | 0.00098
331.5 K | 0.00123
332.4 K | 0.0013
332.5 K | 0.00136
335.5 K | 0.0017
338.5 K | 0.00228
342.2 K | 0.00302
346.4 K | 0.0043
349.5 K | 0.0056
350.4 K | 0.00612
353.3 K | 0.00738
353.4 K | 0.00736
356.3 K | 0.00918
359.2 K | 0.01148
360.3 K | 0.01247
362.3 K | 0.01466
364.2 K | 0.01684

CCN(CC)C(C)=O [N,N-diethylacetamide]
Settings | vapor or sublimation pressure
293.2 K | 0.05427 kPa
295.7 K | 0.06498 kPa
298.1 K | 0.07907 kPa
300.7 K | 0.09611 kPa
303.3 K | 0.1134 kPa
308.2 K | 0.1595 kPa and 0.1564 kPa
310.6 K | 0.1826 kPa
313.1 K | 0.218 kPa
313.2 K | 0.22 kPa
318.2 K | 0.3145 kPa and 0.3097 kPa
323.1 K | 0.4179 kPa
323.3 K | 0.4212 kPa
325.7 K | 0.4988 kPa
328.2 K | 0.5921 kPa and 0.5695 kPa
330.7 K | 0.6838 kPa
333.1 K | 0.8078 kPa
333.2 K | 0.771 kPa
335.7 K | 0.882 kPa
338.3 K | 1.032 kPa

Reference: the NIST ThermoML archive (doi:10.1016/j.fluid.2019.112241)
